Holding throughout (format): cell-based, Escherichia coli
Experiment [1] deals with E. coli W3110. The experiment can be described thus: Protein leakage assay. Particulars: E. coli W3110, 5 μM peptide, 15 min, pellet analysed by SDS-PAGE, compared to R9-treated sample (Fig. S10). The procedure:
Thaw the previously preserved E. coli W3110 cells from the -80 °C freezer. Scrape a small amount and inoculate it into 1 mL of LB liquid medium. Incubate overnight in a 37°C shaker. Next day, transfer the culture to fresh LB liquid medium at a 1:100 inoculation ratio and incubate at 37 °C until the OD600 reaches approximately 0.47 to 0.53. Collect 300 μL of the E. coli W3110 cells and centrifuge for 2 min at 13,000 rpm, discarding the supernatant afterward. Resuspend the untreated group in 300 μL of PBS, and the peptide treatment group in 297 μL of ddH2O. Add 3 μL of 0.5 mM different peptides to the treatment group, mix well, and allow to react for 15 min. After the treatment, resuspend all samples in 15 μL of 6×SDS loading buffer and 15 μL of 10% SDS. All samples were heated at 99.9°C for 15 min, followed by 10% SDS-PAGE analysis and staining with Coomassie brilliant blue R250. […]
(§1) Incubate overnight in a 37°C shaker. […]

For experiment [2], the system named is E. coli W3110. Briefly: Evaluation of R9-conjugated macrocyclic peptides against E. coli W3110 (survival, CFU). Particulars: E. coli W3110 logarithmic-phase, 5 μM peptide, 15 min treatment (Fig. 4B). The procedure:
the samples were centrifuged at 1000 rpm for 10 min，and take pictures of the pellet after centrifugation. Then, the supernatant from each sample was absorbed into the 96-well plate to ensure that there could be no air bubbles in each hole. The absorbance of the supernatant at the wavelength of 545 nm was measured by microplate reader, and the percentage of hemolysis of each […]
Percentage of hemolysis = 100%OD-OD×
Evaluation of R9-conjugated macrocyclic peptides against Gram-negative pathogens Remove the previously preserved E. coli W3110 cells from the -80 °C refrigerator, scrape a little, inoculate it into 1 mL LB liquid medium, and culture overnight in 37 °C shaker. The strain was inoculated into fresh LB liquid medium according to the inoculation ratio of 1:100 and incubated at 37 ℃ until the OD600 reached about 0.47~0.53. First, 100 μL E. coli W3110 cells was taken, then centrifuged for 2 minutes at 13000 rpm, then the supernatant was absorbed and discarded, and then the cells were resuspended with 100 μL PBS solution, followed by 13000 rpm centrifugation for two minutes. Various fluorinated macrocyclic peptides conjugated with R9 were dissolved in DMSO and then diluted to the required concentration. […] Finally, the plate was scanned and counted. […]

For experiment [3], the system named is E. coli W3110. Briefly: Propidium iodide (PI) assay of membrane permeability. The following applies: E. coli W3110 logarithmic-phase, 15 min treatment with 5 μM peptide, PI 25 μg/mL 15 min (Fig. 5A). The method, then:
Propidium Iodide (PI) assay
Thaw the previously preserved E. coli W3110 cells from the -80 °C freezer. Scrape a small amount and inoculate it into 1 mL of LB liquid medium. Culture overnight in a 37°C shaker. Next day, inoculate the strain into fresh LB liquid medium at a 1:100 ratio and incubate at 37 °C until the OD600 reaches approximately 0.47 to 0.53. Take 100 μL of the E. coli W3110 cells and centrifuge for 2 min at 13,000 rpm. Discard the supernatant. For the untreated group, resuspend the cells in 100 μL of PBS. For the peptide treatment group, resuspend the cells in 99 μL of ddH2O and add 1 […]
μL of 0.5 mM of the different peptides. Mix thoroughly and let react for 15 min. After the treatment, take 80 μL of each sample and incubate with PI at a final concentration of 25 μg/mL for 15 min.
After incubation, wash the samples with the same amount of PBS, centrifuge, and resuspend at a 10-fold concentration. Observe the images using a Nikon Eclipse Ci-L Plus microscope. […]
as §1
Centrifuge again at
6100g for 10 min, discard the supernatant, and add 500 μL of ddH2O containing 2.5% glutaraldehyde. Resuspend and fix the cells overnight at 4°C. Centrifuge at 6100g for 10 min, remove the supernatant, and wash twice with ddH2O, letting it stand for 15 min each time, followed by centrifugation at 6100g for 10 min. Discard the supernatant. Dehydrate the sample with ethanol at concentration gradients of 30%, 60%, and 90%, without resuspension, centrifuging at 6100g for […]

As for “Ac-(4-F-DPhe)KHFIY(4-F-β-Phe)YRSPICGS(Acp)RRRRRRRRR-NH2 (sidechain bridge or staple) [BAM-β3-R9, BAM-β3 conjugated with cell-penetrating peptide R9]”, the cellular protein leakage result in the experiment on E. coli W3110 [1] is recorded as “partial cellular protein leakage”. Further, the “eradication of E. coli bacteria” value in the experiment with E. coli W3110 [2] is “over 99.9%”. In addition, the “PI red fluorescence (cell membrane permeability)” value in the experiment with E. coli W3110 [3] is “notable red fluorescence intensity”.
For “Ac-(4-F-DPhe)IWHKSLT(4-F-DPhe)NYLHTCGS(Acp)RRRRRRRRR-NH2 (sidechain bridge or staple) [BAM-f2-R9, BAM-f2 conjugated with cell-penetrating peptide R9]” the same measures were “partial cellular protein leakage”, “over 99.9%” and “notable red fluorescence intensity”.
